Experimental data as given in patent US7767815B2, “Fused tricyclic mGluR1 antagonists as therapeutic agents” (Schering Corporation, priority 2005, dated 2010).

biological target: T1, hmGluR1 receptor (Homo sapiens, UniProt Q13255); test: mGluR1 IC50 determination, FLIPR intracellular calcium mobilization against Quisqualate; format: cell-based; conditions: CHO cell line stably expressing hmGluR1; against Quisqualate 1 μM (EC80); compounds added 10 minutes before; read-out: mGluR1 IC50
T1 construct: expressed in transfected cells; host or cells: CHO
Method: A CHO cell line stably expressing hmGluR1 receptor was established. One day prior to assay, cells were split in growth media at concentration of 50,000 cells/well in a volume of 100 μl and seeded into black clear-bottom 96-well plates. After two to six hours, when cells were well attached to the plate, growth medium was replaced with assay medium (100 μL) consisting of DMEM high glucose, supplemented with GPT (1 U/mL) and sodium pyruvate, 1 mM. Following overnight incubation, medium was discarded and cells were loaded for 2 hours with dye from the Calcium 3 Assay Reagent Kit (Molecular Devices, # R8033), prepared according to manufacturers' instructions. […] Test compounds were added 10 minutes before Quisqualate.

T1 sequence (Q13255 19-1194): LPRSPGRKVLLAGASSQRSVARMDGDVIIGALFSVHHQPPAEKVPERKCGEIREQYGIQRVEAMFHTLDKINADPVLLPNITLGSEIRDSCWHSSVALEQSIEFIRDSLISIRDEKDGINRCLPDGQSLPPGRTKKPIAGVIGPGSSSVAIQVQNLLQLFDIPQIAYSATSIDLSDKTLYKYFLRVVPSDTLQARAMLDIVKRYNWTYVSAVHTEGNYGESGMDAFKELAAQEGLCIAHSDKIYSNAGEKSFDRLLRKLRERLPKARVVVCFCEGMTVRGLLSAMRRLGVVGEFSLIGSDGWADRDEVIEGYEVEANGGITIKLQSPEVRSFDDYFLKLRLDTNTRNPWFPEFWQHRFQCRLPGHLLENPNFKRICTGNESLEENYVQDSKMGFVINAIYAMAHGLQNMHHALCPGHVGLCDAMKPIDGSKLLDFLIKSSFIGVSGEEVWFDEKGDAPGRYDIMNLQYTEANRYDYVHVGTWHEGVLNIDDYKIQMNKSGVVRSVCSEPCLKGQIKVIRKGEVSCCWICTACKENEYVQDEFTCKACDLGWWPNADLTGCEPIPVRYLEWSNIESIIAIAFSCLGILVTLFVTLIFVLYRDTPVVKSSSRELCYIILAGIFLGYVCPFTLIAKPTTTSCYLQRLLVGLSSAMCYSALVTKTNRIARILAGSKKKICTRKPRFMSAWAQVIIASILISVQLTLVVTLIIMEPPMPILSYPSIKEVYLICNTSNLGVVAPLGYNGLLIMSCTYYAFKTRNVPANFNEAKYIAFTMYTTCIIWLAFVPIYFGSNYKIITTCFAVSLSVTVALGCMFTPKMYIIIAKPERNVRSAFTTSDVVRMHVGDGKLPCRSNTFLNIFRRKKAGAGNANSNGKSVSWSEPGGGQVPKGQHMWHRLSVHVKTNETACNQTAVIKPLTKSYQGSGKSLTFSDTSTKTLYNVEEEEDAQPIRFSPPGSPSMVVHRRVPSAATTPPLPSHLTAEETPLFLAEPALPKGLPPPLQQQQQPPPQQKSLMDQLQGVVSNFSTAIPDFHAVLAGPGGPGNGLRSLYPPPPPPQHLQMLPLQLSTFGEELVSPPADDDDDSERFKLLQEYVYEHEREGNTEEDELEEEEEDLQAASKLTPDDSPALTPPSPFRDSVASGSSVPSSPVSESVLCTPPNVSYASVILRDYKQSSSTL

IC50 [µM]	Compound
0.0034	COc1ccnc2sc3c(=O)n(-c4ccc(Cl)cc4)ccc3c12 [16B]
0.0039	COc1ccnc2sc3c(=O)n(-c4ccc(C)cc4)ccc3c12 [16C]
0.0048	COc1ccnc2sc3c(=O)n(-c4ccc(Br)cc4)ccc3c12 [16E]
0.0098	COc1ccc(-n2ccc3c(sc4nccc(NC5CC5)c43)c2=O)cc1F [19AV]

same assay, conditions: CHO cell line stably expressing hmGluR1; against Quisqualate 1 μM (EC80); compounds added 10 minutes before; read-out: mGluR1 IC50 rating

IC50 [µM]	Compound
< 0.02	CN(C)c1ccnc2sc3c(=O)n(-c4ccc(O)cc4)ccc3c12 [9H]
< 0.02	COc1ccnc2sc3c(=O)n(-c4ccc(Cl)cc4)ccc3c12 [16B]
< 0.02	COc1ccnc2sc3c(=O)n(-c4ccc(C)cc4)ccc3c12 [16C]
< 0.02	COc1ccnc2sc3c(=O)n(-c4ccc(Br)cc4)ccc3c12 [16E]
0.02 to 0.1	COc1ccnc2sc3c(=O)n(-c4ccc5ncsc5c4)ccc3c12 [16F]
< 0.02	COc1ccnc2sc3c(=O)n(-c4ccc5scnc5c4)ccc3c12 [16G]
< 0.02	COc1ccnc2sc3c(=O)n(-c4ccc(F)cc4)ccc3c12 [16H]
< 0.02	COc1ccc(-n2ccc3c(sc4nccc(OC)c43)c2=O)cc1F [16I]
< 0.02	COc1ccnc2sc3c(=O)n(-c4ccccc4)ccc3c12 [16M]
< 0.02	COc1ccnc2sc3c(=O)n(-c4ccc5c(c4)OCO5)ccc3c12 [16O]
0.02 to 0.1	COc1ccnc2sc3c(=O)n(-c4ccc5c(c4)OCCO5)ccc3c12 [16P]
< 0.02	COc1ccnc2sc3c(=O)n(-c4ccc5occc5c4)ccc3c12 [16Q]
< 0.02	COc1ccnc2sc3c(=O)n(-c4cccc(Cl)c4)ccc3c12 [16R]
< 0.02	COc1ccnc2sc3c(=O)n(-c4cccc(C)c4)ccc3c12 [16T]
0.02 to 0.1	COc1ccnc2sc3c(=O)n(-c4ccccc4Cl)ccc3c12 [16U]
0.02 to 0.1	COc1ccnc2sc3c(=O)n(-c4ccc(C#N)cc4)ccc3c12 [16X]
0.1 to 1	O=c1c2sc3nccc(O)c3c2ccn1-c1ccc(Cl)cc1 [17B]
0.1 to 1	Cc1ccc(-n2ccc3c(sc4nccc(O)c43)c2=O)cc1 [17C]
0.02 to 0.1	COc1ccc(-n2ccc3c(sc4nccc(NCCCCO)c43)c2=O)cc1 [19AA]
0.02 to 0.1	Cc1ccc(-n2ccc3c(sc4nccc(N)c43)c2=O)cc1 [19AC]
< 0.02	C#CCNc1ccnc2sc3c(=O)n(-c4ccc(Cl)cc4)ccc3c12 [19AE]
< 0.02	C#CCNc1ccnc2sc3c(=O)n(-c4ccc(C)cc4)ccc3c12 [19AG]
0.02 to 0.1	COc1ccc(-n2ccc3c(sc4nccc(NCCCCCO)c43)c2=O)cc1 [19AH]
0.02 to 0.1	CCNc1ccnc2sc3c(=O)n(-c4ccc(F)cc4)ccc3c12 [19AL]
0.02 to 0.1	O=c1c2sc3nccc(NC4CC4)c3c2ccn1-c1ccc(F)cc1 [19AM]
0.02 to 0.1	C#CCNc1ccnc2sc3c(=O)n(-c4ccc(F)cc4)ccc3c12 [19AN]
0.1 to 1	C#CCNc1ccnc2sc3c(=O)n(-c4ccc(OC)c(F)c4)ccc3c12 [19AO]

IC50 [µM]	Compound
0.02 to 0.1	CCNc1ccnc2sc3c(=O)n(-c4ccc5scnc5c4)ccc3c12 [19AQ]
0.02 to 0.1	O=c1c2sc3nccc(NC4CC4)c3c2ccn1-c1ccc2scnc2c1 [19AR]
< 0.02	CCNc1ccnc2sc3c(=O)n(-c4ccc(OC)c(F)c4)ccc3c12 [19AU]
< 0.02	COc1ccc(-n2ccc3c(sc4nccc(NC5CC5)c43)c2=O)cc1F [19AV]
< 0.02	C#CCNc1ccnc2sc3c(=O)n(-c4ccc(Br)cc4)ccc3c12 [19AZ]
0.02 to 0.1	CCNc1ccnc2sc3c(=O)n(-c4ccc(C#N)cc4)ccc3c12 [19BB]
0.02 to 0.1	N#Cc1ccc(-n2ccc3c(sc4nccc(NC5CC5)c43)c2=O)cc1 [19BC]
0.02 to 0.1	CCNc1ccnc2sc3c(=O)n(-c4ccc(OC)cc4F)ccc3c12 [19BG]
0.02 to 0.1	COc1ccc(-n2ccc3c(sc4nccc(NC5CC5)c43)c2=O)c(F)c1 [19BH]
0.02 to 0.1	COCCNc1ccnc2sc3c(=O)n(-c4ccc(C)cc4)ccc3c12 [19C]
0.02 to 0.1	C[C@@H](O)CNc1ccnc2sc3c(=O)n(-c4ccc(Cl)cc4)ccc3c12 [19E]
< 0.02	O=c1c2sc3nccc(NCCO)c3c2ccn1-c1ccc(Cl)cc1 [19F]
0.02 to 0.1	COCCNc1ccnc2sc3c(=O)n(-c4ccc(Cl)cc4)ccc3c12 [19G]
0.02 to 0.1	COCCCNc1ccnc2sc3c(=O)n(-c4ccc(Cl)cc4)ccc3c12 [19H]
0.02 to 0.1	O=c1c2sc3nccc(NCC(F)(F)F)c3c2ccn1-c1ccc(Cl)cc1 [19I]
> 1	COCCNc1ccnc2sc3c(=O)n(-c4ccc(O)cc4)ccc3c12 [19J]
0.02 to 0.1	Cc1ccc(-n2ccc3c(sc4nccc(NCCO)c43)c2=O)cc1 [19L]
0.02 to 0.1	Cc1ccc(-n2ccc3c(sc4nccc(NC[C@@H](C)O)c43)c2=O)cc1 [19M]
0.02 to 0.1	Cc1ccc(-n2ccc3c(sc4nccc(NCC(F)(F)F)c43)c2=O)cc1 [19R]
0.02 to 0.1	COc1ccc(-n2ccc3c(sc4nccc(NCC(F)(F)F)c43)c2=O)cc1 [19S]
< 0.02	COc1ccc(-n2ccc3c(sc4nccc(N(C)N)c43)c2=O)cc1 [19U]
0.02 to 0.1	COCCCNc1ccnc2sc3c(=O)n(-c4ccc(OC)cc4)ccc3c12 [19W]
0.02 to 0.1	C#CCNc1ccnc2sc3c(=O)n(-c4ccc(OC)cc4)ccc3c12 [19X]
0.02 to 0.1	COc1ccc(-n2ccc3c(sc4nccc(NCCCO)c43)c2=O)cc1 [19Y]
< 0.02	COc1ncnc2sc3c(=O)n(-c4ccc(C)cc4)ccc3c12 [23A]
0.1 to 1	COc1ccc(-n2ccc3c(sc4ncnc(OC)c43)c2=O)cc1 [23B]
0.02 to 0.1	COc1ncnc2sc3c(=O)n(-c4ccc(Cl)cc4)ccc3c12 [23C]
